Test results as given in patent publication US8703961B2, “Thiazole derivatives for the treatment of diseases such as cancer” (Merck Patent GmbH, priority 2009, dated 2014).

Tests used:
Test in all cases: filter binding kinase assay
Type in all cases: biochemical
[1] = target: T1, AKT1 (Homo sapiens, UniProt P31749); conditions: derived from % inhibition at 1 μM
T1 construct: purchased
Outline: (§1)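 Compound was pre-incubated with enzyme and substrate for 5 minutes at room temperature, then the reaction was started with ATP (added solution at 5, 20 or 50 […] depending on kinase). Orthophosphoric acid stopped it, and phosphorylated substrate captured on P81 filters was quantified by scintillation counting.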

[2] = target: T2, BRSK2 (Homo sapiens, UniProt Q8IWQ3); conditions: derived from % inhibition at 1 μM
T2 construct: purchased
T2 sequence (Q8IWQ3 1-736): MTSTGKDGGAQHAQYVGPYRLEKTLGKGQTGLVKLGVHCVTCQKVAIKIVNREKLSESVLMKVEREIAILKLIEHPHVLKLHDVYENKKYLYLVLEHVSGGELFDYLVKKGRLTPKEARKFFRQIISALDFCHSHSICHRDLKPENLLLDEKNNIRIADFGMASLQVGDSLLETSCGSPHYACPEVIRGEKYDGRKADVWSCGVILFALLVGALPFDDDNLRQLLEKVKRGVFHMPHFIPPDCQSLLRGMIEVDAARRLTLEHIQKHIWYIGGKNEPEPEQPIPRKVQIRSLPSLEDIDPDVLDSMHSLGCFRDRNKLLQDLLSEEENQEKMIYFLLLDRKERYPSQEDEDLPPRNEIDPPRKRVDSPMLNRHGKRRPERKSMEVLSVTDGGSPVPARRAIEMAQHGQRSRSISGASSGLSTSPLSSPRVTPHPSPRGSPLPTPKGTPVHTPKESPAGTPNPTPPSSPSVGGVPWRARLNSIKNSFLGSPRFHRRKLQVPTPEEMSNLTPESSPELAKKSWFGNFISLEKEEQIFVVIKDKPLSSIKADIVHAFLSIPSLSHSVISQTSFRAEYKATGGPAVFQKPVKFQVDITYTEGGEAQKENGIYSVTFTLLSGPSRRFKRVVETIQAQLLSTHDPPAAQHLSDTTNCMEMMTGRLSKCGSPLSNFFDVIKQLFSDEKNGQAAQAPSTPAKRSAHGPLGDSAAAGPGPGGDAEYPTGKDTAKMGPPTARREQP
Outline: as §1

[3] = target: T3, CAMK1 (Homo sapiens, UniProt Q14012); conditions: derived from % inhibition at 1 μM
T3 construct: purchased
Outline: as §1

[4] = target: T4, CHEK2 (Homo sapiens, UniProt O96017); conditions: derived from % inhibition at 1 μM
T4 construct: purchased
Outline: as §1

[5] = target: T5, HIPK2 (Homo sapiens, UniProt Q9H2X6); conditions: for IC50: derived from % inhibition at 1 μM
T5 construct: purchased
Outline: as §1

[6] = target: T6, IRAK4 (Homo sapiens, UniProt Q9NWZ3); conditions: derived from % inhibition at 1 μM
T6 construct: purchased
T6 sequence (Q9NWZ3 1-460): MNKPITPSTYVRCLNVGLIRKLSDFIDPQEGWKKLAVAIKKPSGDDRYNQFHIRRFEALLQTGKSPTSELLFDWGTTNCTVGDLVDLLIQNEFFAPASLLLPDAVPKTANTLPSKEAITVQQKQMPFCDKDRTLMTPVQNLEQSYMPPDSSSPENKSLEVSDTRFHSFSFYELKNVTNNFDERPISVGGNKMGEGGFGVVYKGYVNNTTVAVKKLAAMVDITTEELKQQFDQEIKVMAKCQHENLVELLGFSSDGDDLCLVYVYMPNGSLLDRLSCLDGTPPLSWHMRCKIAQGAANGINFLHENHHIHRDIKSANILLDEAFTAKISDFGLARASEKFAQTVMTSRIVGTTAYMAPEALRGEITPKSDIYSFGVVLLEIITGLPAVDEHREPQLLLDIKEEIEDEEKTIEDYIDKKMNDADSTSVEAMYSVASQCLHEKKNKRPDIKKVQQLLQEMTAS
Outline: as §1

[7] = target: T7, MAPK14 (Homo sapiens, UniProt Q16539); conditions: derived from % inhibition at 1 μM
T7 construct: purchased
Outline: as §1

[8] = target: T8, PKN2 (PRK2) (Homo sapiens, UniProt Q16513); conditions: for IC50: derived from % inhibition at 1 μM
T8 construct: purchased
Outline: as §1

[9] = target: T9, TTK (Homo sapiens, UniProt P33981); conditions: derived from % inhibition at 1 μM
T9 construct: purchased
T9 sequence (P33981 1-857): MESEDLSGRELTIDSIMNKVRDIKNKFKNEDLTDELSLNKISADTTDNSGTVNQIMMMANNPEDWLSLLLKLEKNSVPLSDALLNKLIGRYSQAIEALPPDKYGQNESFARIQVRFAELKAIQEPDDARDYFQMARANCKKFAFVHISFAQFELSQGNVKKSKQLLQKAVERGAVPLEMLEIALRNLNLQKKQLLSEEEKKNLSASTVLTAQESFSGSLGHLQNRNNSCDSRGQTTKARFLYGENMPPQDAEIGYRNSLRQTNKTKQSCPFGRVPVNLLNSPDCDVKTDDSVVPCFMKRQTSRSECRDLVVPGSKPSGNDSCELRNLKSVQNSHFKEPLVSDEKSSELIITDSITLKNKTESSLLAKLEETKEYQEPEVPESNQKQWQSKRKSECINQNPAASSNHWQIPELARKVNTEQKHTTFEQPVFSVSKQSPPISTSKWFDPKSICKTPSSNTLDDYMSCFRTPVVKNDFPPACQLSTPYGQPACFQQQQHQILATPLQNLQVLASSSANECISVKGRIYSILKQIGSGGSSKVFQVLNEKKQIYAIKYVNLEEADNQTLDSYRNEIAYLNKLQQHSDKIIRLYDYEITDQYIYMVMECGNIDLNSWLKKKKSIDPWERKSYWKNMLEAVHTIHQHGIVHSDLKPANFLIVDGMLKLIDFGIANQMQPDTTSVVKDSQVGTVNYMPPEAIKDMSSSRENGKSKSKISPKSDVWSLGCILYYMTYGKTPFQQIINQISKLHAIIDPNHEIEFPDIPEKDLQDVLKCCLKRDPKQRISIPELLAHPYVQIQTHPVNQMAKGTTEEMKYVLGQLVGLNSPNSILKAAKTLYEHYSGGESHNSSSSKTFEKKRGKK
Outline: as §1

T5 sequence (Q9H2X6 whole entry, species assumed): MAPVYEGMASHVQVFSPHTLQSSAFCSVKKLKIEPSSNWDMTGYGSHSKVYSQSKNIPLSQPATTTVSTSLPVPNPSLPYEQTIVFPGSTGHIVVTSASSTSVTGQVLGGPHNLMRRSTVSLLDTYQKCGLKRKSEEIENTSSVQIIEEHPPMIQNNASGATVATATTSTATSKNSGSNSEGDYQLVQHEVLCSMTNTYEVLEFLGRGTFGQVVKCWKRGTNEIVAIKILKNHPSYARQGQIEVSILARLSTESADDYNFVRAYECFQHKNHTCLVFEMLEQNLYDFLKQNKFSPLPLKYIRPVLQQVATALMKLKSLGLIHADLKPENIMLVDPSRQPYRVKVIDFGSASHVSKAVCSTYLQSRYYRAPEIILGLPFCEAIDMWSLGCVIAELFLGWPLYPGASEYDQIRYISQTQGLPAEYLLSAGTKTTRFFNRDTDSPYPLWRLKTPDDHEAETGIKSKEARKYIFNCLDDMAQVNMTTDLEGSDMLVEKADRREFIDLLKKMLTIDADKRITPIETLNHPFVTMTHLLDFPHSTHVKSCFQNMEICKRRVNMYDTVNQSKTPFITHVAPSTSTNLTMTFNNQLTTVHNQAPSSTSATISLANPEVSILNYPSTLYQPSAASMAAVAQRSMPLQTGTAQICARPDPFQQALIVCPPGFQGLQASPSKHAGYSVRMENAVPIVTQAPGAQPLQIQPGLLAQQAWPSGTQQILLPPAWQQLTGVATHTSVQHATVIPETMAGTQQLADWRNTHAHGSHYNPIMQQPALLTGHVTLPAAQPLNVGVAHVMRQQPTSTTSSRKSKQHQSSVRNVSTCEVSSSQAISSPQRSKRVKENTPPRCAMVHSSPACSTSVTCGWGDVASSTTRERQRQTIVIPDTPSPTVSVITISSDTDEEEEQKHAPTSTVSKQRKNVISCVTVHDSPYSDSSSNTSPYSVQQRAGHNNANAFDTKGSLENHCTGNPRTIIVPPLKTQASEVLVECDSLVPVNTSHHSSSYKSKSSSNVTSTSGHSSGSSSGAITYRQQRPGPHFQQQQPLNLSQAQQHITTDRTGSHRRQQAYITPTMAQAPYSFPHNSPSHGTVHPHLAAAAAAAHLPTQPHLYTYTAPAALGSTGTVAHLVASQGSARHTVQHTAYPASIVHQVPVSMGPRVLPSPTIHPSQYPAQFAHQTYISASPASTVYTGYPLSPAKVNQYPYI
T8 sequence (Q16513 whole entry, species assumed): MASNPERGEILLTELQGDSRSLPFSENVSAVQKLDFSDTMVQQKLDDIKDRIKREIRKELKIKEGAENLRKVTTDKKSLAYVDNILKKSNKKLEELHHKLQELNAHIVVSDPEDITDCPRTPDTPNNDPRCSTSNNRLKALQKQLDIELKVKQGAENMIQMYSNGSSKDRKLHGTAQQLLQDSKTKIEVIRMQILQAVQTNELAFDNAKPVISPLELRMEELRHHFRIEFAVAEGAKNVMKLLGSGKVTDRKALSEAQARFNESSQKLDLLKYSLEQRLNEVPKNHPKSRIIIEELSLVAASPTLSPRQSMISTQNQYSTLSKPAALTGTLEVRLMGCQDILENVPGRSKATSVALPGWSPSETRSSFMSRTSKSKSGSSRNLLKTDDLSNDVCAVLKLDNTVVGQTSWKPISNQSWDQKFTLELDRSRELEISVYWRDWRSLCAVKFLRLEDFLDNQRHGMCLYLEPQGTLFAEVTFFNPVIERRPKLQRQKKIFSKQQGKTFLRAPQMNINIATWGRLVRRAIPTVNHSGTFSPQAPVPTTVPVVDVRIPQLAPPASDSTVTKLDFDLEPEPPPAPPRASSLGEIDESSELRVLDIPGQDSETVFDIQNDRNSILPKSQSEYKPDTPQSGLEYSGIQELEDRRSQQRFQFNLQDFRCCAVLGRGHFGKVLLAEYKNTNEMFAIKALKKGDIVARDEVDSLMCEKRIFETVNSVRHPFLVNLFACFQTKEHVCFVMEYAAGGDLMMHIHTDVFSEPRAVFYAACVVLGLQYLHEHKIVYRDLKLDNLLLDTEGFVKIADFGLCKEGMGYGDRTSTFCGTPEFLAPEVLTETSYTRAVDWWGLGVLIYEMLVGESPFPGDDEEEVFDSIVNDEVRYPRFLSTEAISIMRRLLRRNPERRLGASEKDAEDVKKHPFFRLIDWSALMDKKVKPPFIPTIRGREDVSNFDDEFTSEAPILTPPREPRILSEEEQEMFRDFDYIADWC
T1 sequence (P31749 whole entry, species assumed): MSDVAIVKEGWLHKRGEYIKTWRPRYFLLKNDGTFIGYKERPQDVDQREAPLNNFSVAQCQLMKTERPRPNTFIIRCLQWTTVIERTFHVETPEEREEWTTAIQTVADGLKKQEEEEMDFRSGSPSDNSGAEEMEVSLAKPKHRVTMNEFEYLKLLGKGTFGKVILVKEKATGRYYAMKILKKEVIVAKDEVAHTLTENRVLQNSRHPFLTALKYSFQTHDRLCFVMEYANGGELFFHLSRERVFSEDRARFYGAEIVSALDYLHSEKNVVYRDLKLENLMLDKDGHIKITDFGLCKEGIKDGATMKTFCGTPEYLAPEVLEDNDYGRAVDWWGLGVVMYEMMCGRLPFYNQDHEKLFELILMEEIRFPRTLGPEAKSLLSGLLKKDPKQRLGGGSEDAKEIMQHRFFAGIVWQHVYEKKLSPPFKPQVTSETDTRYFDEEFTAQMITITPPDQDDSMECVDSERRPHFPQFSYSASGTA
T7 sequence (Q16539 whole entry, species assumed): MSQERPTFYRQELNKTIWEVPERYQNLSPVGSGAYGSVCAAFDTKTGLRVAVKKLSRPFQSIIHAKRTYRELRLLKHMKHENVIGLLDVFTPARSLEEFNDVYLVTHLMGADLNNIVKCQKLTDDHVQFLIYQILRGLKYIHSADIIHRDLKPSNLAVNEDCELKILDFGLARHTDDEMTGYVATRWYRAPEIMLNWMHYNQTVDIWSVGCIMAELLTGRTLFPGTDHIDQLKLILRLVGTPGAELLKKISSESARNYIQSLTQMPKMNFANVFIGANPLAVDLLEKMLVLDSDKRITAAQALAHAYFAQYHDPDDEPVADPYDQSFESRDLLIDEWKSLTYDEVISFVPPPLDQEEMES
T4 sequence (O96017 whole entry, species assumed): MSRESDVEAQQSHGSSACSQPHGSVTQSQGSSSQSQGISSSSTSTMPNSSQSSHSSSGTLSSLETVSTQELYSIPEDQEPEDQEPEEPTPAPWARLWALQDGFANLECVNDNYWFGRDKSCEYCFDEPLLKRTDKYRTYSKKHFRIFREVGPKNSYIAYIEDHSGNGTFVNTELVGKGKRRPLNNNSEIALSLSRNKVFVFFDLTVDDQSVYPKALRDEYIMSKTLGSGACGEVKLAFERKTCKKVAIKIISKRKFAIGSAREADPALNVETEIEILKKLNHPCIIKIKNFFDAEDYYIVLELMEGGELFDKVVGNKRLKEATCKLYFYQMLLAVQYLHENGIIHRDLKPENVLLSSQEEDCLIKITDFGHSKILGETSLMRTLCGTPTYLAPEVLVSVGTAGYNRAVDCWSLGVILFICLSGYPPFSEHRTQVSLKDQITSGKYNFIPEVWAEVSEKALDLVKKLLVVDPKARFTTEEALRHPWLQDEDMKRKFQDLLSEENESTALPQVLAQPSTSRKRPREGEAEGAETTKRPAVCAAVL

| Structure (SMILES) | IC50 [1] [µM] | IC50 [2] [µM] | IC50 [3] [µM] | IC50 [4] [µM] | IC50 [5] [µM] | IC50 [6] [µM] | IC50 [7] [µM] | IC50 [8] [µM] | IC50 [9] [µM] | remaining activity at 1 µM ([5]; read-out: residual kinase activity HIPK2) [%] | remaining activity at 1 µM ([8]; read-out: residual kinase activity PRK2) [%] |
| --- | --- | --- | --- | --- | --- | --- | --- | --- | --- | --- | --- |
| c1ccc(Cc2c[nH]c3ncsc23)cc1 [Compound A7, 6-benzyl-4H-pyrrolo[2,3-d]thiazole] | > 1 | > 1 | 1 to 10 | > 1 | > 1 | > 1 | 1 to 10 | 1 to 10 | 10 to 100 | – | – |
| Nc1ncsc1C#Cc1cnc2[nH]ccc2c1 [Compound A22, 5-(1H-pyrrolo[2,3-b]pyridin-5-ylethynyl)thiazol-4-ylamine] | 10 to 100 | > 1 | 10 to 100 | > 1 | 0.01 to 1 | > 1 | 10 to 100 | 0.01 to 1 | 10 to 100 | 44 | 38 |
| CC(C)(C)OC(=O)Nc1nc(-c2ccncc2)sc1C#CCN1CCOCC1 [Compound A25, tert-butyl[5-(3-morpholin-4-ylprop-1-ynyl)-2-pyridin-4-ylthiazol-4-yl]-carbamate] | > 1 | > 1 | 1 to 10 | > 1 | > 1 | 10 to 100 | 10 to 100 | > 1 | 10 to 100 | – | – |
| CC(C)(C)OC(=O)Nc1ncsc1C#CCN1C(=O)c2ccccc2C1=O [Compound A26, tert-butyl{5-[3-(1,3-dioxo-1,3-dihydroisoindol-2-yl)prop-1-ynyl]-thiazol-4-yl}carbamate] | > 1 | > 1 | > 1 | > 1 | 1 to 10 | 10 to 100 | 10 to 100 | 1 to 10 | 10 to 100 | – | – |
| Nc1ncsc1C#Cc1cccc(O)c1 [Compound A27, 3-(4-aminothiazol-5-ylethynyl)phenol] | > 1 | 10 to 100 | 1 to 10 | 10 to 100 | > 1 | 10 to 100 | 1 to 10 | 10 to 100 | 10 to 100 | – | – |
